Source: the supplement of paper PMC10307832

Experiments:
Test in all cases: relative viability (nuclei count vs DMSO), 5 days (fraction); higher = more cells survive
[1] = test system: LCLC-103H
Outline: (§1)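 Relative viability divides the nuclei count in treated wells by that in vehicle wells. Lung cancer cell lines were seeded in 1536-well plates, dosed by pin tool the next day, and fixed and stained after 5 days in one step with final 0.05% Triton X-100, 1% formaldehyde and 1 ug/ml Hoechst. Dosing was a single drug or a fixed anchor-drug dose plus five library-drug doses (not always all listed) in √10 steps, and values are medians of duplicate plates imaged at 4×.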

[2] = test system: NCI-H2023
Outline: as §1

[3] = test system: NCI-H647
Outline: as §1

[4] = test system: NCI-H2087
Outline: as §1

[5] = test system: NCI-H1993
Outline: as §1

[6] = test system: NCI-H650
Outline: as §1

[7] = test system: LOU-NH91
Outline: as §1

[8] = test system: EMC-BAC-2
Outline: as §1

[9] = test system: HCC-44
Outline: as §1

[10] = test system: NCI-H23
Outline: as §1

[11] = test system: HARA
Outline: as §1

[12] = test system: BEN
Outline: as §1

[13] = test system: NCI-H2126
Outline: as §1

[14] = test system: 201T
Outline: as §1

[15] = test system: NCI-H838
Outline: as §1

[16] = test system: NCI-H596
Outline: as §1

[17] = test system: NCI-H727
Outline: as §1

[18] = test system: NCI-H1666
Outline: as §1

[19] = test system: NCI-H2347
Outline: as §1

[20] = test system: NCI-H441
Outline: as §1

[21] = test system: NCI-H2009
Outline: as §1

[22] = test system: NCI-H3122
Outline: as §1

## NC(=O)Nc1cc(-c2cccc(F)c2)sc1C(=O)N[C@H]1CCCNC1 [AZD7762] + CC(C)C[C@H](NC(=O)[C@H](Cc1ccccc1)NC(=O)c1cnccn1)B(O)O [Bortezomib] (partner 0.002 µM)
[1]; first compound 0.01 µM
  relative viability: 1.19
[1]; first compound 0.03162 µM
  relative viability: 1.08
[1]; first compound 0.1 µM
  relative viability: 1.25
[1]; first compound 0.3162 µM
  relative viability: 0.95
[1]; first compound 1 µM
  relative viability: 0.867
[2]; first compound 0.01 µM
  relative viability: 0.82
[2]; first compound 0.03162 µM
  relative viability: 0.904
[2]; first compound 0.1 µM
  relative viability: 0.465
[2]; first compound 0.3162 µM
  relative viability: 0.283
[2]; first compound 1 µM
  relative viability: 0.104
[3]; first compound 0.01 µM
  relative viability: 1.15
[3]; first compound 0.03162 µM
  relative viability: 1.08
[3]; first compound 0.1 µM
  relative viability: 0.919
[3]; first compound 0.3162 µM
  relative viability: 0.634
[3]; first compound 1 µM
  relative viability: 0.0894
[4]; first compound 0.01 µM
  relative viability: 0.88
[4]; first compound 0.03162 µM
  relative viability: 0.851
[4]; first compound 0.1 µM
  relative viability: 0.792
[4]; first compound 0.3162 µM
  relative viability: 0.972
[4]; first compound 1 µM
  relative viability: 1.01
[5]; first compound 0.01 µM
  relative viability: 1.2
[5]; first compound 0.03162 µM
  relative viability: 1.08
[5]; first compound 0.1 µM
  relative viability: 1.07
[5]; first compound 0.3162 µM
  relative viability: 1.36
[5]; first compound 1 µM
  relative viability: 0.841
[6]; first compound 0.01 µM
  relative viability: 0.851
[6]; first compound 0.03162 µM
  relative viability: 0.892
[6]; first compound 0.1 µM
  relative viability: 0.772
[6]; first compound 0.3162 µM
  relative viability: 0.687
[6]; first compound 1 µM
  relative viability: 0.767
[7]; first compound 0.01 µM
  relative viability: 0.558
[7]; first compound 0.03162 µM
  relative viability: 0.462
[7]; first compound 0.1 µM
  relative viability: 0.487
[7]; first compound 0.3162 µM
  relative viability: 0.548
[7]; first compound 1 µM
  relative viability: 0.522
[8]; first compound 0.01 µM
  relative viability: 1.12
[8]; first compound 0.03162 µM
  relative viability: 1.08
[8]; first compound 0.1 µM
  relative viability: 1.09
[8]; first compound 0.3162 µM
  relative viability: 1.15
[8]; first compound 1 µM
  relative viability: 1.12
[9]; first compound 0.01 µM
  relative viability: 0.797
[9]; first compound 0.03162 µM
  relative viability: 0.804
[9]; first compound 0.1 µM
  relative viability: 0.919
[9]; first compound 0.3162 µM
  relative viability: 0.705
[9]; first compound 1 µM
  relative viability: 0.862
[10]; first compound 0.01 µM
  relative viability: 1.26
[10]; first compound 0.03162 µM
  relative viability: 0.986
[10]; first compound 0.1 µM
  relative viability: 0.742
[10]; first compound 0.3162 µM
  relative viability: 0.597
[10]; first compound 1 µM
  relative viability: 0.284
[11]; first compound 0.01 µM
  relative viability: 1.08
[11]; first compound 0.03162 µM
  relative viability: 1.11
[11]; first compound 0.1 µM
  relative viability: 1.14
[11]; first compound 0.3162 µM
  relative viability: 1.13
[11]; first compound 1 µM
  relative viability: 0.42
[12]; first compound 0.01 µM
  relative viability: 0.902
[12]; first compound 0.03162 µM
  relative viability: 0.758
[12]; first compound 0.1 µM
  relative viability: 0.888
[12]; first compound 0.3162 µM
  relative viability: 0.821
[12]; first compound 1 µM
  relative viability: 0.636
[13]; first compound 0.01 µM
  relative viability: 1.06
[13]; first compound 0.03162 µM
  relative viability: 1.11
[13]; first compound 0.1 µM
  relative viability: 1.18
[13]; first compound 0.3162 µM
  relative viability: 1.2
[13]; first compound 1 µM
  relative viability: 1.07
[14]; first compound 0.01 µM
  relative viability: 1.09
[14]; first compound 0.03162 µM
  relative viability: 1.12
[14]; first compound 0.1 µM
  relative viability: 1.12
[14]; first compound 0.3162 µM
  relative viability: 1.12
[14]; first compound 1 µM
  relative viability: 1.19
[15]; first compound 0.01 µM
  relative viability: 0.773
[15]; first compound 0.03162 µM
  relative viability: 0.814
[15]; first compound 0.1 µM
  relative viability: 0.715
[15]; first compound 0.3162 µM
  relative viability: 0.724
[15]; first compound 1 µM
  relative viability: 0.303
[16]; first compound 0.01 µM
  relative viability: 1.02
[16]; first compound 0.03162 µM
  relative viability: 0.896
[16]; first compound 0.1 µM
  relative viability: 1.13
[16]; first compound 0.3162 µM
  relative viability: 1.2
[16]; first compound 1 µM
  relative viability: 1.03
[17]; first compound 0.01 µM
  relative viability: 1.04
[17]; first compound 0.03162 µM
  relative viability: 0.878
[17]; first compound 0.1 µM
  relative viability: 0.556
[17]; first compound 0.3162 µM
  relative viability: 0.446
[17]; first compound 1 µM
  relative viability: 0.298
[18]; first compound 0.01 µM
  relative viability: 0.906
[18]; first compound 0.03162 µM
  relative viability: 0.906
[18]; first compound 0.1 µM
  relative viability: 1.13
[18]; first compound 0.3162 µM
  relative viability: 0.848
[18]; first compound 1 µM
  relative viability: 0.688
[19]; first compound 0.01 µM
  relative viability: 1.1
[19]; first compound 0.03162 µM
  relative viability: 0.967
[19]; first compound 0.1 µM
  relative viability: 0.863
[19]; first compound 0.3162 µM
  relative viability: 1.17
[19]; first compound 1 µM
  relative viability: 0.685
[20]; first compound 0.01 µM
  relative viability: 1.13
[20]; first compound 0.03162 µM
  relative viability: 0.972
[20]; first compound 0.1 µM
  relative viability: 0.313
[20]; first compound 0.3162 µM
  relative viability: 0.456
[20]; first compound 1 µM
  relative viability: 0.548
[21]; first compound 0.01 µM
  relative viability: 0.904
[21]; first compound 0.03162 µM
  relative viability: 1.13
[21]; first compound 0.1 µM
  relative viability: 1.08
[21]; first compound 0.3162 µM
  relative viability: 0.839
[21]; first compound 1 µM
  relative viability: 0.794
[22]; first compound 0.01 µM
  relative viability: 1.04
[22]; first compound 0.03162 µM
  relative viability: 1.01
[22]; first compound 0.1 µM
  relative viability: 1.05
[22]; first compound 0.3162 µM
  relative viability: 0.966
[22]; first compound 1 µM
  relative viability: 1.09

## Oc1nc(-c2ccc(C(F)(F)F)cc2)nc2c1CSCC2 [XAV939] + C[C@@H](Oc1cc(-c2cnn(C3CCNCC3)c2)cnc1N)c1c(Cl)ccc(F)c1Cl [Crizotinib] (partner 1 µM)
[1]; first compound 0.08 µM
  relative viability: 1.07
[1]; first compound 0.253 µM
  relative viability: 0.917
[1]; first compound 0.8 µM
  relative viability: 0.984
[1]; first compound 2.53 µM
  relative viability: 0.968
[2]; first compound 0.08 µM
  relative viability: 0.598
[2]; first compound 0.253 µM
  relative viability: 0.581
[2]; first compound 0.8 µM
  relative viability: 0.468
[2]; first compound 2.53 µM
  relative viability: 0.43
[3]; first compound 0.08 µM
  relative viability: 1.07
[3]; first compound 0.253 µM
  relative viability: 1
[3]; first compound 0.8 µM
  relative viability: 1.11
[3]; first compound 2.53 µM
  relative viability: 0.9
[4]; first compound 0.08 µM
  relative viability: 0.879
[4]; first compound 0.253 µM
  relative viability: 0.998
[4]; first compound 0.8 µM
  relative viability: 0.715
[4]; first compound 2.53 µM
  relative viability: 0.797
[5]; first compound 0.8 µM
  relative viability: 0.85
[5]; first compound 2.53 µM
  relative viability: 0.768
[6]; first compound 0.08 µM
  relative viability: 1.01
[6]; first compound 0.253 µM
  relative viability: 0.945
[6]; first compound 0.8 µM
  relative viability: 0.736
[6]; first compound 2.53 µM
  relative viability: 0.545
[7]; first compound 0.08 µM
  relative viability: 0.719
[7]; first compound 0.253 µM
  relative viability: 0.708
[7]; first compound 0.8 µM
  relative viability: 0.734
[7]; first compound 2.53 µM
  relative viability: 0.699
[8]; first compound 0.08 µM
  relative viability: 0.821
[8]; first compound 0.253 µM
  relative viability: 0.63
[8]; first compound 0.8 µM
  relative viability: 0.623
[8]; first compound 2.53 µM
  relative viability: 0.438
[9]; first compound 0.08 µM
  relative viability: 0.785
[9]; first compound 0.253 µM
  relative viability: 0.796
[9]; first compound 0.8 µM
  relative viability: 0.79
[9]; first compound 2.53 µM
  relative viability: 0.75
[10]; first compound 0.08 µM
  relative viability: 0.502
[10]; first compound 0.253 µM
  relative viability: 0.425
[10]; first compound 0.8 µM
  relative viability: 0.436
[10]; first compound 2.53 µM
  relative viability: 0.426
[11]; first compound 0.08 µM
  relative viability: 1.14
[11]; first compound 0.253 µM
  relative viability: 0.785
[11]; first compound 0.8 µM
  relative viability: 1.05
[11]; first compound 2.53 µM
  relative viability: 0.932
[12]; first compound 0.08 µM
  relative viability: 0.868
[12]; first compound 0.253 µM
  relative viability: 0.788
[12]; first compound 0.8 µM
  relative viability: 0.978
[13]; first compound 0.08 µM
  relative viability: 1.12
[13]; first compound 0.253 µM
  relative viability: 0.95
[13]; first compound 0.8 µM
  relative viability: 0.938
[13]; first compound 2.53 µM
  relative viability: 0.828
[14]; first compound 0.08 µM
  relative viability: 0.995
[14]; first compound 0.253 µM
  relative viability: 1.03
[14]; first compound 0.8 µM
  relative viability: 0.94
[14]; first compound 2.53 µM
  relative viability: 0.866
[15]; first compound 0.08 µM
  relative viability: 0.875
[15]; first compound 0.253 µM
  relative viability: 0.719
[15]; first compound 0.8 µM
  relative viability: 0.759
[15]; first compound 2.53 µM
  relative viability: 0.432
[16]; first compound 0.08 µM
  relative viability: 1.12
[16]; first compound 0.253 µM
  relative viability: 0.955
[16]; first compound 0.8 µM
  relative viability: 1.06
[16]; first compound 2.53 µM
  relative viability: 0.93
[17]; first compound 0.08 µM
  relative viability: 0.812
[17]; first compound 0.253 µM
  relative viability: 0.566
[17]; first compound 0.8 µM
  relative viability: 0.722
[17]; first compound 2.53 µM
  relative viability: 0.765
[18]; first compound 0.08 µM
  relative viability: 0.971
[18]; first compound 0.253 µM
  relative viability: 0.64
[18]; first compound 0.8 µM
  relative viability: 0.781
[18]; first compound 2.53 µM
  relative viability: 0.473
[19]; first compound 0.08 µM
  relative viability: 0.692
[19]; first compound 0.253 µM
  relative viability: 0.648
[19]; first compound 0.8 µM
  relative viability: 0.75
[19]; first compound 2.53 µM
  relative viability: 0.515
[20]; first compound 0.08 µM
  relative viability: 0.986
[20]; first compound 0.253 µM
  relative viability: 0.724
[20]; first compound 0.8 µM
  relative viability: 0.66
[20]; first compound 2.53 µM
  relative viability: 0.779
[21]; first compound 0.08 µM
  relative viability: 1.12
[21]; first compound 0.253 µM
  relative viability: 1.04
[21]; first compound 0.8 µM
  relative viability: 1.01
[21]; first compound 2.53 µM
  relative viability: 0.96
[22]; first compound 0.08 µM
  relative viability: 0.286
[22]; first compound 0.253 µM
  relative viability: 0.27
[22]; first compound 0.8 µM
  relative viability: 0.238
[22]; first compound 2.53 µM
  relative viability: 0.234
